Measurements as given in US6060487A, “Indanol compounds” (Adir et Compagnie, priority 1997, dated 2000).

Assays:
[1] = target: α1 receptors; experiment: Affinity for α1 receptors of rats, competition with [^3 H]-prazosin; assay type: binding; settings: frontal cortex of rat, 25° C.
Experimental: The radioactivity retained on the filters is determined by liquid scintillation counting. The binding isotherms are analysed by non-linear regression using `PRISM` software (GraphPad Software Inc., S. Diego, USA) to determine IC50 values.

[2] = target: T1, post-synaptic 5-HT1A receptors (Rattus norvegicus, UniProt P19327); experiment: Body temperature test in rats; assay type: in vivo
T1 construct: Body Temperature Test in Rats (post-synaptic 5-HT1A receptors); from tissue; host or cells: living rat (whole animal)
T1 sequence (P19327 1-422): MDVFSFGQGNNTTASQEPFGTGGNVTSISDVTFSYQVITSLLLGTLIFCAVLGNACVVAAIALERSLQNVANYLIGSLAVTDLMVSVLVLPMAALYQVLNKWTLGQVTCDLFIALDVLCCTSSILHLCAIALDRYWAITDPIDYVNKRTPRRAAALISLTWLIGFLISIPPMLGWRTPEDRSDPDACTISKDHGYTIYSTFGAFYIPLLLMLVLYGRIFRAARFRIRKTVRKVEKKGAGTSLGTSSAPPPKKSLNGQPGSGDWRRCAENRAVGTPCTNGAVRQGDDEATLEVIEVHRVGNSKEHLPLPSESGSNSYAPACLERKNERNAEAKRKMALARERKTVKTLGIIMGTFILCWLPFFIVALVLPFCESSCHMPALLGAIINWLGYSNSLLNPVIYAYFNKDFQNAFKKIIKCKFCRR
Text: 2. Body Temperature Test in Rats (post-synaptic 5-HT1A receptors)
That effect is reversed by 5-HT1A antagonists,as has been shown by M. J. Millan (J. Pharmacol. Exp. Ther., 1993, 264, 1346-1376). According to the protocol described by that author, compounds of the invention which when administered on their own bring about a decrease in body temperature will be identified as post-synaptic 5-HT1A serotoninergic agonists. On the other hand, compounds of the invention that reverse the hypothermia induced by the prototypical 5-HT1A agonist 8-OH-DPAT will be identified as post-synaptic 5-HT1A antagonists.

[3] = target: T2, human 5-HT1A receptor (Homo sapiens, UniProt P08908); experiment: Affinity for human h5-HT1A receptors, competition with [^3 H]-8-OH-DPAT; assay type: binding
T2 construct: expressed in transfected cells; host or cells: CHO cells (membranes)
T2 sequence (P08908 1-422): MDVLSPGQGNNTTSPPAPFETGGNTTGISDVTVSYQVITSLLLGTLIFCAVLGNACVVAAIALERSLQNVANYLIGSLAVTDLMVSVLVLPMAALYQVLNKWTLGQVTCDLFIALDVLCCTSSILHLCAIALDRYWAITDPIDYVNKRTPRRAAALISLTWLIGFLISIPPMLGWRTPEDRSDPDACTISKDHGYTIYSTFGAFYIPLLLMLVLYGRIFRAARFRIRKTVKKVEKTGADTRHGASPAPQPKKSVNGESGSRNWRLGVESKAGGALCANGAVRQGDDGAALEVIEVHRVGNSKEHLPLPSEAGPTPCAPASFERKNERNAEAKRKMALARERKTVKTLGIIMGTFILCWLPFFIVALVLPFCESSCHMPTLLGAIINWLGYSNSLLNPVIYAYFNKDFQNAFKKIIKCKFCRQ
Experimental: The radioactivity retained on the filters is determined by liquid scintillation counting.

[4] = Ultrasonic vocalisation test in rats; assay type: in vivo, Male Wistar rats; settings: for duration of the ultrasonic vocalisations: mean ± s.e.m.
Text: 3. Ultrasonic Vocalisation Test in Rats
When a rat is placed in an environment previously associated with an unpleasant experience (electric shocks to the paws), its anxiety is shown by the emission of inaudible cries (or ultrasonic vocalisations).
Standard cages (Coulbourn Instruments), placed in sound-absorbing ventilated boxes, are fitted with a floor composed of electrifiable metal bars (shock generator and scrambler Med Associates Inc) and with a microphone located in the centre of the ceiling. The ultrasonic noises are converted into an audible range (bat-detector Buitenbedrijf). The signals modified in that manner are filtered and then processed (RTS software, Engineering Design). The spectrograms obtained are recorded on DAT tapes.
Male Wistar rats weighing 180-200 g on their arrival are placed in cages of four with free access to water and food from five days before the start of the study until the end of the study. The procedure employed is divided into three successive stages separated by 24 hours, called training, selection and test. During the training period, the animals are placed individually into cages where they receive six electric shocks (0.8 mA, 8 s) distributed randomly over a period of seven minutes. Selection comprises placing each animal in a cage for two minutes where it receives a single shock and putting it back in the cage thirty minutes later to record the ultrasonic vocalisations for a period of ten minutes; those animals in which the duration of the vocalisations is less than 90 seconds are excluded from the remainder of the experiment. The test phase proceeds in a similar manner to the selection stage, except that the compounds or the carrier are administered at the end of the two-minute period.

[5] = target: T3, pre-synaptic 5-HT1A receptors (Rattus norvegicus, UniProt P19327); experiment: In vivo recording of unitary extracellular electrical activity in the dorsal nucleus of the raphe in rats
T3 construct: in the Dorsal Nucleus of the Raphe in Rats (pre-synaptic 5-HT1A receptors); from tissue; host or cells: living anaesthetised rat, serotoninergic neurons of the dorsal nucleus of the raphe
T3 sequence (P19327 1-422): T1 sequence (P19327 1-422)
Experimental: 1. "In Vivo" Recording of Unitary Extracellular Electrical Activity in the Dorsal Nucleus of the Raphe in Rats (pre-synaptic 5-HT1A receptors)
The administration of a 5-HT1A serotoninergic agonist decreases the discharge frequency of neurons in a dose-dependant manner. That effect is reversed by the selective 5-HT1A antagonist, WAY 100,635.
The rats are anaesthetised with chloral hydrate (400 mg/kg, i.p.) and placed in a stereotaxis apparatus (Unimecanique, France) after catheterisation of the femoral vein. The level of anaesthesia is maintained by i.p. administration of chloral hydrate every hour; the rectal temperature is maintained at 37±1° C. by means of a thermostatically controlled heated cover. A tungsten microelectrode (10 M.OMEGA., 1 μM) is inserted using an electronic microinsertion device (Unimecanique, France) into the dorsal nucleus of the raphe (AP: -7.8/bregma; L: 0.0; H: 5.0-6.5/dura; Paxinos and Watson Atlas, 1986). The potentials of the serotoninergic cells are characterised by their morphology (positive/negative biphase potentials, of a duration of less than 2.5 msec) and their slow and regular discharge rhythm of from 0.5 to 2.5 Hz. A single cell per animal is recorded.
After a period of ≥5 min (basal activity) and a first injection of carrier (distilled water to which a few drops of dilute lactic acid have been added, pH adjusted to 5 with 1N NaOH), the compound of the invention is administered intravenously in cumulatively increasing doses at intervals of 5 minutes.
Acquisition of the data is effected by the software Spike2 (Cambridge Electronic Design, England). The discharge frequency is measured over one minute at the maximum variation between each injection and is expressed as a percentage variation in relation to the basal activity (average of the 5 minutes preceding the first treatment) defined as 100%. The ID50 is calculated using a simple linear regression method with repeated measurements.

[6] = target: T1, post-synaptic 5-HT1A receptors; settings: M. J. Millan, 1993; cited from earlier work

Row | SMILES | Ki [1] | character at post-synaptic 5-HT1A receptors ([2]; post-synaptic, s.c.) | ED50 ([2]; sc, read-out: ID50 (reversal of the effects of 8-OH-DPAT, hypothermia)) | Ki [3] | duration of the ultrasonic vocalisations ([4]; 0.04 mg/kg s.c., n = 6) | duration of the ultrasonic vocalisations ([4]; 0.16 mg/kg s.c., n = 3, ** p < 0.01 vs carrier (Dunnett test)) | duration of the ultrasonic vocalisations ([4]; 2.5 mg/kg s.c., n = 5, ** p < 0.01 vs carrier (Dunnett test)) | effect on duration of the vocalisations (anxiolytic activity) ([4]; 0.16 and 2.5 mg/kg s.c.) | discharge frequency, percentage in relation to the basal activity (100%) ([5]; 0.25 μg/kg i.v., n = 3, mean ± standard error of the mean) | discharge frequency, percentage in relation to the basal activity (100%) ([5]; 0.5 μg/kg i.v., n = 3, mean ± standard error of the mean) | discharge frequency, percentage in relation to the basal activity (100%) ([5]; 1 μg/kg i.v., n = 3, mean ± standard error of the mean) | ED50 ([5]; intravenous, rat dorsal raphe, read-out: ID50 (decrease of discharge frequency)) | character at pre-synaptic 5-HT1A receptors ([5]; pre-synaptic, rat, i.v.) | discharge frequency, percentage in relation to the basal activity (100%), after WAY 100,635 ([5]; reversal by WAY 100,635 31 μg/kg after cumulative Example 6 doses, n = 3, mean ± standard error of the mean) | effect on body temperature [6]
1 | O[C@@H]1c2ccccc2C[C@H]1N1CCN(c2cccc3c2OCCO3)CC1 (relative stereo) [Example 6, Trans-2-[4-(2,3-dihydro[1,4]benzodioxin-5-yl)piperazin-1-yl]indan-1-ol] | 932 nM | behaves like a post-synaptic 5-HT1A serotoninergic antagonist | 1.3 mg/kg | 1.73 nM | 170 ± 62 s | 28 ± 14 s | 8 ± 8 s | brings about a reduction in the duration of the vocalisations, indicating its anxiolytic activity | 73.84% | 52.23% | 36.16% | 0.00059 mg/kg | behaves like a 5-HT1A serotoninergic agonist at the pre-synaptic level | 140.48% | 
2 | CCCN(CCC)C1CCc2cccc(O)c2C1 (stereo not drawn) [Example 8-OH-DPAT] |  |  |  |  |  |  |  |  |  |  |  |  |  |  | brings about a decrease in body temperature in a dose-dependent manner
